Test results reported in ChEMBL document CHEMBL5518204, “Discovery and Proof of Concept of Potent Dual Polθ/PARP Inhibitors for Efficient Treatment of Homologous Recombination-Deficient Tumors” (J Med Chem, 2024).
Activity calls are given as the source filed them. No cut-off for these calls is given here.

Assays:
MDA-MB-231 = assay: Induction of cell cycle arrest in human MDA-MB-231 cells assessed as accumulation of cells at G2/M phase at 2 uM incubated for 3 days by PI staining based flow cytometric analysis; type: functional; conditions: time 3.0 day
[1] = biological target: T1, Protein mono-ADP-ribosyltransferase PARP10 (Homo sapiens, UniProt Q53GL7); assay: Inhibition of PARP10 (unknown origin)
T1 sequence (Q53GL7 whole entry): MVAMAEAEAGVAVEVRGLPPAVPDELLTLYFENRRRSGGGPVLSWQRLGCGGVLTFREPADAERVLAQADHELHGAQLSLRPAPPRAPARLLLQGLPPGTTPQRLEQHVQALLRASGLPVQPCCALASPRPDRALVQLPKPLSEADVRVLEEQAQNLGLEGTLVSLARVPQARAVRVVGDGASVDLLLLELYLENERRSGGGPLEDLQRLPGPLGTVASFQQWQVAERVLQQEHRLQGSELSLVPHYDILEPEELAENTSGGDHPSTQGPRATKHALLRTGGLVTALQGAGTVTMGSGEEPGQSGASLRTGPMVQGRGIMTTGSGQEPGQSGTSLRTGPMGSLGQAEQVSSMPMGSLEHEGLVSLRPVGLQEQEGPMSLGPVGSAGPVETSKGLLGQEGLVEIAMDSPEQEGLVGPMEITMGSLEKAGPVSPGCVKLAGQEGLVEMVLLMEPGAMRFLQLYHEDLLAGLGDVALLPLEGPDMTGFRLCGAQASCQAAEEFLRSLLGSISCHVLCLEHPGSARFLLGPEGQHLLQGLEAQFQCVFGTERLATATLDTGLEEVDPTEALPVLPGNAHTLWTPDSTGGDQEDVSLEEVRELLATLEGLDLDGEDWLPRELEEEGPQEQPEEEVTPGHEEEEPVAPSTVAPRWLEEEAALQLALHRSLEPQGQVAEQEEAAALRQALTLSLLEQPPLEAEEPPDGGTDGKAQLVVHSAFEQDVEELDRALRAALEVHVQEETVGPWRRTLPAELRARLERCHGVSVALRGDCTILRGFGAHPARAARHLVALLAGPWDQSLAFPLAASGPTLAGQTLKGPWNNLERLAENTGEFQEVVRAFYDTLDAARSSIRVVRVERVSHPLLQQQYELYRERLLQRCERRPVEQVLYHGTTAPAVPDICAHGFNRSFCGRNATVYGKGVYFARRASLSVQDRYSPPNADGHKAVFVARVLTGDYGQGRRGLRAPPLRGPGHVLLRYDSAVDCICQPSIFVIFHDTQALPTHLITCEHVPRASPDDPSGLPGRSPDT

[2] = Toxicity in BALB/c mouse xenografted with human MDA-MB-231 cells assessed as increase in body weight at 20 to 40 mg/kg, ip administered for 21 days; type: organism-based; conditions: in vivo, 504 h, dose 20-40 mg/kg, time 21 day
HCC1937 = assay: Antiproliferative activity against BRCA1-deficient human HCC1937 cells assessed as inhibition of cell proliferation incubated for 5 days by MTT assay; type: functional, cell-based; conditions: HCC1937, 120 h

Compound: COc1ccc(Cl)cc1-c1cc(C)ncc1C(=O)Nc1nnc(OCC2CCN(C(=O)c3cc(Cc4n[nH]c(=O)c5ccccc45)ccc3F)CC2)s1
- Activity (MDA-MB-231): Active
- IC50 [1]: 1.1 µM
- Activity [2]: Non-Toxic
- IC50 (HCC1937): 20.9 µM
